Among the data in PubChem BioAssay (NCI) are outcome and TGI values, retold here.

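Test compounds were applied to cells in 96-well plates for 48 hours at 5 doses. TGI denotes the concentration required for complete inhibition of growth.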 Active and inactive are the calls of the source. No stated cut-off is given here; in the data, active means GI50 below about 0.43 µM; inactive means the rest.

Test systems include RXF-631 renal; SN12K1 renal; P388/ADR leukemia; P388 leukemia.
Holding throughout (experiment): NCI tumour cell line growth inhibition, 48 h

Take `COc1c(OC(C)C)cc2cc(O)c(C(=O)NC3Cc4ccc(c(Cl)n4)O[C@@H]4C=C5C#C/C(=C\C#CC6OC56C4OC4CC(C)(O)C(O)C(C)O4)C(OC4CC(O)C(N(C)C)C(C)O4)COC3=O)cc2c1OC` (some centres undefined): the outcome with RXF-631 renal was inactive.
`N#C/C(=C1\OC(=N)C(c2ccc(Cl)cc2Cl)C1=O)c1ccc(Cl)cc1Cl` (centres undefined) had a TGI in the test with RXF-631 renal of more than 100 µM.
The same measure, in the same setting: next, `C/C(=N\NC(=O)C(N)=O)c1c(O)cc(C)oc1=O`: more than 100 µM; `C[P+]1(c2ccccc2)CCCCC1`: more than 100 µM; `c1ccc(CN2COc3c(ccc4c5c(ccc34)CN(Cc3ccccc3)CO5)C2)cc1`: more than 100 µM.
Molecule `C=C1C=CC2(Br)OC3CC(C)(Cl)C(Br)CC13C2(C)C` (centres undefined) gave a TGI in the test with RXF-631 renal of more than 100 µM.
In the case of `O=C(Cc1ccccc1)C(c1ccccc1)S(=O)(=O)c1ccccc1` (centres undefined), the TGI in the test with RXF-631 renal was more than 100 µM.
On the same count and under the same terms, next, `COc1c(CC=C(C)C)c(O)c(C(CC(C)C)c2c(O)c(CC=C(C)C)c(O)c(C(C)=O)c2O)c(O)c1C(C)=O` (centres undefined): 6.94 µM.
In the test with RXF-631 renal, `O=C(CO)C1CC2C=CC1C2` (centres undefined) yielded a TGI of more than 100 µM.
For the molecule `C/C(=N\NC(=S)N1CCN(c2ccccn2)CC1)c1ncccn1`, the TGI stood at 1610 nM in the test with SN12K1 renal, 15.4 nM in the test on P388/ADR leukemia and 15.3 nM in the test with P388 leukemia.
For `CCOC(=O)C(CCCNC(=O)OC(C)(C)C)N(Cc1ccc(OC)cc1OC)C(=O)CC(=O)CP(=O)(OCC)OCC` (centres undefined), in the test on RXF-631 renal, the TGI was more than 100 µM.
The same measure, in the same setting: next, `c1ccc(-c2csc3ncn4cnnc4c23)cc1`: more than 100 µM.
